In brackets after ≈: the same amount, converted by molar mass.
Assays:
[1] = In vitro dissolution simulation experiment, pH 7.4 phosphate buffer; assay type: physicochemical; details: 37° C.
Method: The mixtures were shaken at 37° C.

physchem = details: 37 °C, thermodynamic from solid
Method: The mixtures were shaken at 37° C. for 24 h and filtered through 0.45 μm aqueous-phase filter membranes. The filtrates were collected and the solubility was determined by high performance liquid chromatography. pH3, pH4, pH5 and pH6 represent acetate buffer solutions, and pH7, pH7.4, pH8 and pH9 represent phosphate buffer solutions.

[2] = humans; cited from earlier work
[3] = Pharmacokinetic experiment in rats (plasma cariprazine, LC-MS/MS); details: intramuscular injection at 9 mg/kg
Method: In the whole experiment, the animals from the intramuscular injection group were given ad libitum access to food and water, and those from the oral intragastrical group were fasted overnight before administration and given access to food 4 h after administration.
Plasma sample collection: about 150 μL of blood was collected from the jugular vein (whole blood was centrifuged within 30 min to isolate plasma) and placed in a tube containing anticoagulant EDTA-K2, and after treatment, plasma was stored in a freezer at −70° C. before use.
Pretreatment of plasma sample: to 30 μL of plasma sample was added 200 μL of internal standard solution (40 ng/mL Glipizide acetonitrile solution); the mixture was vortexed for 1 min and centrifuged at 5800 rpm at 4° C. for 10 min; 100 μL of supernatant was transferred to a new plate and 1 μL of solution was taken for LC-MS/MS analysis.
Secondary mass spectrometry analysis was performed using an electrospray ion source (Turbo spray) in the multiple reaction monitoring (MRM) mode under the positive ion detection mode.

SMILES: CN(C)C(=O)NC1CCC(CCN2CCN(c3cccc(Cl)c3Cl)CC2)CC1 (centres unmarked) [Amorphous cariprazine embonate, cariprazine embonate]
- Concentration, 1 (h) [1]: 11940 ng/mL
- Concentration, 5 (h) [1]: 9580 ng/mL
- Concentration, 7 (h) [1]: 7080 ng/mL
- Concentration, 24 (h) [1]: 9900 ng/mL

SMILES: CN(C)C(=O)N[C@H]1CC[C@H](CCN2CCN(c3cccc(Cl)c3Cl)CC2)CC1.Cl [Cariprazine hydrochloride]
- solubility at 24 h (physchem; pH 5, aqueous buffer): 10800 µg/mL

SMILES: CN(C)C(=O)N[C@H]1CC[C@H](CCN2CCN(c3cccc(Cl)c3Cl)CC2)CC1 [Cariprazine, cariprazine]
- solubility at 24 h (physchem; pH 3, aqueous buffer): 1360 µg/mL (≈ 3190 µM)
- solubility at 24 h (physchem; pH 5, aqueous buffer): 243 µg/mL (≈ 568 µM)
- solubility at 24 h (physchem; pH 7, aqueous buffer): 3.2 µg/mL (≈ 7.49 µM)
- solubility at 24 h (physchem; pH 9, aqueous buffer): 1.4 µg/mL (≈ 3.28 µM)
- cariprazine clearance [2]: 3 to 9 days

SMILES: CN(C)C(=O)NC1CCC(CCN2CCN(c3cccc(Cl)c3Cl)CC2)CC1 (centres unmarked) [Crystalline form A of cariprazine embonate]
- Concentration, 1 (h) [1]: 1000 ng/mL
- Concentration, 5 (h) [1]: 4100 ng/mL
- Concentration, 7 (h) [1]: 3900 ng/mL
- Concentration, 24 (h) [1]: 2500 ng/mL
- length of release among the crystalline forms [3]: best length of release

SMILES: CN(C)C(=O)NC1CCC(CCN2CCN(c3cccc(Cl)c3Cl)CC2)CC1 (centres unmarked) [Crystalline form B of cariprazine embonate]
- Concentration, 1 (h) [1]: 5300 ng/mL
- Concentration, 5 (h) [1]: 5200 ng/mL
- Concentration, 7 (h) [1]: 2200 ng/mL
- Concentration, 24 (h) [1]: 1700 ng/mL

SMILES: CN(C)C(=O)NC1CCC(CCN2CCN(c3cccc(Cl)c3Cl)CC2)CC1 (centres unmarked) [Crystalline form G of cariprazine embonate]
- Concentration, 1 (h) [1]: 1300 ng/mL
- Concentration, 5 (h) [1]: 2280 ng/mL
- Concentration, 7 (h) [1]: 1840 ng/mL
- Concentration, 24 (h) [1]: 8050 ng/mL

Source: US12653821B2 (SHANGHAI BOCIMED PHARMACEUTICAL CO., LTD., priority 2020, dated 2026)
